Results as given in ChEMBL document CHEMBL1151474, “Replication of Colonic Crohn's Disease Mucosal Escherichia coli Isolates within Macrophages and Their Susceptibility to Antibiotics” (Antimicrob Agents Chemother, 2008).
≈ marks a conversion by molar mass, not a printed value. Calls of active or inactive are those of the source. The calls are words filed in the database; no cut-off is given here.

Legend:
Escherichia coli [1] = assay: Antibacterial activity against Escherichia coli isolate HM154 isolated from colonic mucosal biopsies of patient with Crohn's disease after 24 hrs by Etest antibiotic concentration gradient method; format: functional; settings: isolate HM154, 24 h
Escherichia coli [2] = assay: Antibacterial activity against Escherichia coli isolate HM580 isolated from colonic mucosal biopsies of patient with Crohn's disease after 24 hrs by Etest antibiotic concentration gradient method; format: functional; settings: isolate HM580, 24 h
Escherichia coli [3] = assay: Antibacterial activity against Escherichia coli isolate HM605 isolated from colonic mucosal biopsies of patient with Crohn's disease
Escherichia coli [4] = assay: Antibacterial activity against extracellular Escherichia coli isolate HM605 isolated from colonic mucosal biopsies of patient with Crohn's disease at 0.01 to 10 ug/ml after 3 hrs; format: functional, organism-based
Escherichia coli [5] = assay: Antibacterial activity against gentamicin-treated internalized Escherichia coli isolate HM605 in mouse J774A1 cells isolated from colonic mucosal biopsies of patient with Crohn's disease assessed as intracellular killing of bacteria at 10% compound Cmax after 3 hrs; format: functional, J774.A1
Escherichia coli [6] = assay: Antibacterial activity against gentamicin-treated internalized Escherichia coli isolate LF82 in mouse J774A1 cells isolated from chronic ileal lesions of patient with Crohn's disease assessed as intracellular killing of bacteria at 10% compound Cmax after 3 hrs; format: functional, J774.A1
Escherichia coli [7] = assay: Antibacterial activity against gentamicin-treated internalized Escherichia coli isolate HM580 in mouse J774A1 cells isolated from colonic mucosal biopsies of patient with Crohn's disease assessed as intracellular killing of bacteria at 10% compound Cmax after 3 hrs; format: functional, J774.A1
Escherichia coli [8] = assay: Antibacterial activity against gentamicin-treated internalized Escherichia coli isolate HM615 in mouse J774A1 cells isolated from colonic mucosal biopsies of patient with Crohn's disease assessed as intracellular killing of bacteria at 10% compound Cmax after 3 hrs; format: functional, J774.A1
Escherichia coli [9] = assay: Antibacterial activity against Escherichia coli isolate HM615 isolated from colonic mucosal biopsies of patient with Crohn's disease after 24 hrs by Etest antibiotic concentration gradient method; format: functional; settings: isolate HM615, 24 h
Escherichia coli [10] = assay: Antibacterial activity Escherichia coli isolate HM413 isolated from ileo-colonic mucosal biopsies of patient with Crohn's disease after 24 hrs by Etest antibiotic concentration gradient method; format: functional; settings: isolate HM413, 24 h
Escherichia coli [11] = assay: Antibacterial activity Escherichia coli isolate HM419 isolated from ileo-colonic mucosal biopsies of patient with Crohn's disease after 24 hrs by Etest antibiotic concentration gradient method; format: functional; settings: isolate HM419, 24 h
Escherichia coli [12] = assay: Antibacterial activity against Escherichia coli isolate HM95 isolated from ileal mucosal biopsies of patient with Crohn's disease after 24 hrs by Etest antibiotic concentration gradient method; format: functional; settings: isolate HM95, 24 h
Escherichia coli [13] = assay: Antibacterial activity against mucosa-associated Escherichia coli isolate HM428 isolated from patient with irritable bowel syndrome or sporadic polyps after 24 hrs by Etest antibiotic concentration gradient method; format: functional; settings: isolate HM428, 24 h
Escherichia coli [14] = assay: Antibacterial activity against mucosa-associated Escherichia coli isolate HM454 isolated from patient with irritable bowel syndrome or sporadic polyps after 24 hrs by Etest antibiotic concentration gradient method; format: functional; settings: isolate HM454, 24 h
Escherichia coli [15] = assay: Antibacterial activity against mucosa-associated Escherichia coli isolate HM456 isolated from patient with irritable bowel syndrome or sporadic polyps after 24 hrs by Etest antibiotic concentration gradient method; format: functional; settings: isolate HM456, 24 h
J774.A1 = assay: Cytotoxicity against mouse J774A1 cells assessed as release of adenylate kinase at 100 ug/ml after 3 hrs […] relative to control; format: cell-based; settings: j774.a1, 3 h
Escherichia coli [16] = assay: Antibacterial activity against Escherichia coli isolate LF82 isolated from colonic mucosal biopsies of patient with Crohn's disease after 24 hrs by Etest antibiotic concentration gradient method; settings: isolate LF82, 24 h
Escherichia coli [17] = assay: Antibacterial activity against mucosa-associated Escherichia coli isolate HM463 isolated from patient with irritable bowel syndrome or sporadic polyps after 24 hrs by Etest antibiotic concentration gradient method; settings: isolate HM463, 24 h
Escherichia coli [18] = assay: Antibacterial activity against mucosa-associated Escherichia coli isolate HM484 isolated from patient with irritable bowel syndrome or sporadic polyps after 24 hrs by Etest antibiotic concentration gradient method; settings: isolate HM484, 24 h
Escherichia coli [19] = assay: Antibacterial activity against mucosa-associated Escherichia coli isolate HM488 isolated from patient with irritable bowel syndrome or sporadic polyps after 24 hrs by Etest antibiotic concentration gradient method; settings: isolate HM488, 24 h

- MIC (Escherichia coli [1]): ≤ 1 µg/mL
- MIC (Escherichia coli [2]): ≤ 1 µg/mL
- MIC (Escherichia coli [9]): ≤ 1 µg/mL
- MIC (Escherichia coli [10]): ≤ 1 µg/mL
- MIC (Escherichia coli [11]): ≤ 1 µg/mL
- MIC (Escherichia coli [12]): ≤ 1 µg/mL
- MIC (Escherichia coli [16]): ≤ 1 µg/mL
SMILES: O=C(O)c1cn(C2CC2)c2cc(N3CCNCC3)c(F)cc2c1=O [CIPROFLOXACIN]
- MBC (Escherichia coli [3]): 0.3 µg/mL (≈ 0.905 µM)
- Activity (Escherichia coli [4]): Active
- Activity (Escherichia coli [5]): 86%
- Activity (Escherichia coli [6]): 87.6%
- Activity (Escherichia coli [7]): 90.4%
- Activity (Escherichia coli [8]): 83.8%
- MIC (Escherichia coli [13]): ≤ 1 µg/mL
- MIC (Escherichia coli [14]): ≤ 1 µg/mL
- MIC (Escherichia coli [15]): ≤ 1 µg/mL
- Activity (J774.A1): 90%
- MIC (Escherichia coli [17]): ≤ 1 µg/mL
- MIC (Escherichia coli [18]): ≤ 1 µg/mL
- MIC (Escherichia coli [19]): ≤ 1 µg/mL
